Measured values: patent US5629296A, “9A-N-(N'-carbamoyl)and 9A-N-(N'-thiocarbamoyl) derivatives of 9-deoxo-9A-aza-9A-homoerythromycin A” (Pliva farmaceutiska, kemijska, prehrambena i kozmeticka …, priority 1993, dated 1997)
Converted amounts (≈) assume the structure as drawn.

Legend:
Assay in all cases: MIC, dilution method on microplates (NCCLS M7-A2)
Format in all cases: cell-based
B. cererus ATCC 11778 = test system: B. cererus ATCC 11778
Procedure: (§1) Minimum inhibitory concentrations (MIC, mcg/ml) are determined by dilution method on microplates according to the recommendation of National Committee for Clinical Laboratory Standards (NCCLS, M7-A2). It is evident from Table 1 that standard strains and clinical isolates tested are susceptible to newly synthetised compounds. Thus they may be used for disinfection of rooms, chirurgical instruments and humans and as therapeutic agents in the treatment of infective diseases in animals, especially mammals and humans, caused by a broad spectrum of Gram-positive bacteria, mycoplasmas and generally patogenic microorganisms that are susceptible to the compounds of the formula (I). To this purpose the above compounds and pharmaceutically acceptable acid addition salts thereof may be administered orally in usual doses from 0.2 mg/kg body weight daily to about 250 mg/kg/day, most preferably from 5-50 mg/kg/day, or parenterally in the form of subcutaneous and intramuscular injections.

B. pumilus NCTC 8241 = details: Bacillus pumilus, NCTC8241
Procedure: as §1

[1] = test system: BHS-A Streptococcus pyogenes J-21
Procedure: as §1

[2] = test system: BHS-B Streptococcus Agalactiae J-22
Procedure: as §1

[3] = test system: Bacillus subtilis NCTC 8236; details: NCTC8236
Procedure: as §1

[4] = test system: Esherichia coli ATCC 10536
Procedure: as §1

[5] = test system: Micrococcus flavus ATCC 10240; details: ATCC10240
Procedure: as §1

[6] = test system: Pseudomonas aeruginosa NCTC 10490; details: NCTC10490
Procedure: as §1

Salmonella Panama 6117 = details: Salmonella enterica, PANAMA6117
Procedure: as §1

[7] = test system: Staphylococcus aureus ATCC 6538P; details: ATCC6538P
Procedure: as §1

[8] = test system: Staphylococcus epidermidis ATCC 12228; details: ATCC12228
Procedure: as §1

[9] = test system: Streptococcus faecalis ATCC 8043; details: Enterococcus faecalis, ATCC8043
Procedure: as §1

| SMILES | MIC (B. cererus ATCC 11778) [µg/mL] | MIC (B. pumilus NCTC 8241) [µg/mL] | MIC [1] [µg/mL] | MIC [2] [µg/mL] | MIC [3] [µg/mL] | MIC [4] [µg/mL] | MIC [5] [µg/mL] | MIC [6] [µg/mL] | MIC (Salmonella Panama 6117) [µg/mL] | MIC [7] [µg/mL] | MIC [8] [µg/mL] | MIC [9] [µg/mL] |
| --- | --- | --- | --- | --- | --- | --- | --- | --- | --- | --- | --- | --- |
| CC[C@H]1OC(=O)[C@H](C)[C@@H](O[C@H]2C[C@@](C)(OC)[C@@H](O)[C@H](C)O2)[C@H](C)[C@@H](O[C@@H]2O[C@H](C)C[C@H](N(C)C)[C@H]2O)[C@](C)(O)C[C@@H](C)CN(C(=O)Nc2ccncc2)[C@H](C)[C@@H](O)[C@]1(C)O [Example 4, 9-deoxo-9a-N-[N'-(4-pyridyl)-carbamoyl]-9a-aza-9a-homoerythromycin A] | 12.5 (≈ 14.6 µM) | 12.5 (≈ 14.6 µM) | 12.5 (≈ 14.6 µM) | 12.5 (≈ 14.6 µM) | 25 (≈ 29.2 µM) | 12.5 (≈ 14.6 µM) | 12.5 (≈ 14.6 µM) | 50 (≈ 58.5 µM) | 25 (≈ 29.2 µM) | 12.5 (≈ 14.6 µM) | 25 (≈ 29.2 µM) | 6.25 (≈ 7.31 µM) |
| CC[C@H]1OC(=O)[C@H](C)[C@@H](O[C@H]2C[C@@](C)(OC)[C@@H](O)[C@H](C)O2)[C@H](C)[C@@H](O[C@@H]2O[C@H](C)C[C@H](N(C)C)[C@H]2O)[C@](C)(O)C[C@@H](C)CN(C(=O)Nc2ccccc2)[C@H](C)[C@@H](O)[C@]1(C)O [Example 5, 9-deoxo-9a-N-(N'-phenyl-carbamoyl)-9a-aza-9a-homoerythromycin A] | 12.5 (≈ 14.6 µM) | 6.25 (≈ 7.32 µM) | 3.12 (≈ 3.65 µM) | 1.56 (≈ 1.83 µM) | 6.25 (≈ 7.32 µM) | 12.5 (≈ 14.6 µM) | 6.25 (≈ 7.32 µM) | 50 (≈ 58.5 µM) | 25 (≈ 29.3 µM) | 6.25 (≈ 7.32 µM) | 3.12 (≈ 3.65 µM) | 3.12 (≈ 3.65 µM) |
| CC[C@H]1OC(=O)[C@H](C)[C@@H](O[C@H]2C[C@@](C)(OC)[C@@H](O)[C@H](C)O2)[C@H](C)[C@@H](O[C@@H]2O[C@H](C)C[C@H](N(C)C)[C@H]2O)[C@](C)(O)C[C@@H](C)CN(C(=O)NC(C)C)[C@H](C)[C@@H](O)[C@]1(C)O [Example 1, 9-deoxo-9a-N-(N'-isopropyl-carbamoyl)-9a-aza-9a-homoerythromycin A] | 6.25 (≈ 7.62 µM) | 6.25 (≈ 7.62 µM) |  |  | 1.56 (≈ 1.9 µM) | 12.5 (≈ 15.2 µM) | 3.12 (≈ 3.8 µM) | 25 (≈ 30.5 µM) | 6.25 (≈ 7.62 µM) | 1.56 (≈ 1.9 µM) | 6.25 (≈ 7.62 µM) | 3.12 (≈ 3.8 µM) |
| CC[C@H]1OC(=O)[C@H](C)[C@@H](O[C@H]2C[C@@](C)(OC)[C@@H](O)[C@H](C)O2)[C@H](C)[C@@H](O[C@@H]2O[C@H](C)C[C@H](N(C)C)[C@H]2O)[C@](C)(O)C[C@@H](C)CN(C(=S)NCc2ccccc2)[C@H](C)[C@@H](O)[C@]1(C)O [Example 7, 9-deoxo-9a-N-(N'-benzyl-thiocarbamoyl)-9a-aza-9a-homoerythromycin A] | 6.25 (≈ 7.07 µM) | 1.56 (≈ 1.76 µM) |  |  | 1.56 (≈ 1.76 µM) | 12.5 (≈ 14.1 µM) | 1.56 (≈ 1.76 µM) | 50 (≈ 56.5 µM) | > 100 | 3.12 (≈ 3.53 µM) | 6.25 (≈ 7.07 µM) | 1.56 (≈ 1.76 µM) |

The remaining molecules from weak to strong by MIC (B. cererus ATCC 11778), led by results:

| MIC (B. cererus ATCC 11778) [µg/mL] | MIC (B. pumilus NCTC 8241) [µg/mL] | MIC [1] [µg/mL] | MIC [2] [µg/mL] | MIC [3] [µg/mL] | MIC [4] [µg/mL] | MIC [5] [µg/mL] | MIC [6] [µg/mL] | MIC (Salmonella Panama 6117) [µg/mL] | MIC [7] [µg/mL] | MIC [8] [µg/mL] | MIC [9] [µg/mL] | SMILES |
| --- | --- | --- | --- | --- | --- | --- | --- | --- | --- | --- | --- | --- |
| 6.25 (≈ 7.2 µM) | 3.12 (≈ 3.59 µM) |  |  | 3.12 (≈ 3.59 µM) | 25 (≈ 28.8 µM) | 3.12 (≈ 3.59 µM) | 50 (≈ 57.6 µM) | > 100 | 3.12 (≈ 3.59 µM) | 6.25 (≈ 7.2 µM) | 3.12 (≈ 3.59 µM) | CC[C@H]1OC(=O)[C@H](C)[C@@H](O[C@H]2C[C@@](C)(OC)[C@@H](O)[C@H](C)O2)[C@H](C)[C@@H](O[C@@H]2O[C@H](C)C[C@H](N(C)C)[C@H]2O)[C@](C)(O)C[C@@H](C)CN(C(=O)NCc2ccccc2)[C@H](C)[C@@H](O)[C@]1(C)O [Example 6, 9-deoxo-9a-N-(N'-benzyl-carbamoyl)-9a-aza-9a-homoerythromycin A] |
| 3.12 (≈ 4.25 µM) | 12.5 (≈ 17 µM) | 3.12 (≈ 4.25 µM) | 1.56 (≈ 2.12 µM) | 12.5 (≈ 17 µM) | 3.12 (≈ 4.25 µM) | 1.56 (≈ 2.12 µM) | 25 (≈ 34 µM) | 3.12 (≈ 4.25 µM) | 3.12 (≈ 4.25 µM) | 3.12 (≈ 4.25 µM) | 3.12 (≈ 4.25 µM) | CC[C@H]1OC(=O)[C@H](C)[C@@H](O[C@H]2C[C@@](C)(OC)[C@@H](O)[C@H](C)O2)[C@H](C)[C@@H](O[C@@H]2O[C@H](C)C[C@H](N(C)C)[C@H]2O)[C@](C)(O)C[C@@H](C)CN[C@H](C)[C@@H](O)[C@]1(C)O [Example 9a-NH, 9-deoxo-9a-aza-9a-homoerythromycin A] |
